In PubChem BioAssay AID192 (DTP/NCI, 2004) one finds T/C data, which are given here for 13 molecules.

For this experiment, the system named is BDF1 mice, B16 melanoma ip, median survival T/C. In words: NCI In Vivo Anticancer Drug Screen. Data for tumor model B16 Melanoma (intraperitoneal) in B6D2F1 (BDF1) mice. The settings on record: endpoint: median survival time, higher = longer survival. In a few lines: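 Transplantable tumor model; survival or tumor size measured; reported as T/C, treated over vehicle control.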

Setting [1] is: dose: 3.13 mg/kg/injection, schedule: Q01DX009 (ip), vehicle: saline with Tween-80.
[2] abbreviates: dose: 6.25 mg/kg/injection, schedule: Q01DX009 (ip), vehicle: saline with Tween-80.
Where [3] appears, read: dose: 12.5 mg/kg/injection, schedule: Q01DX009 (ip), vehicle: saline with Tween-80.
[4] abbreviates: dose: 25.0 mg/kg/injection, schedule: Q01DX009 (ip), vehicle: Klucel (hydroxypropylcellulose) (HPC).
[5] abbreviates: dose: 50.0 mg/kg/injection, schedule: Q01DX009 (ip), vehicle: Klucel (hydroxypropylcellulose) (HPC).
Setting [6] is: dose: 100.0 mg/kg/injection, schedule: Q01DX009 (ip), vehicle: Klucel (hydroxypropylcellulose) (HPC).
Where [7] appears, read: dose: 200.0 mg/kg/injection, schedule: Q01DX009 (ip), vehicle: Klucel (hydroxypropylcellulose) (HPC).
[8] abbreviates: dose: 25.0 mg/kg/injection, schedule: Q01DX009 (ip), vehicle: saline with Tween-80.
The mark [9] stands for this setting: dose: 5.0 mg/kg/injection, schedule: Q01DX009 (ip), vehicle: Klucel (hydroxypropylcellulose) (HPC).

The structures appear in SMILES notation. Values joined by “and” are separate entries in the source; they are usually repeats but may differ in a detail not shown here. Equal values may be shown once. Inconclusive results and toxic doses are left out.

As for `Cc1cccc(C)c1NC(=S)N(C)C`, the T/C (dose: 3.12 mg/kg/injection, schedule: Q01DX009 (ip), vehicle: Klucel (hydroxypropylcellulose) (HPC)) is 102 % of control; the T/C under setting [1] is 110 % of control; the T/C (dose: 6.25 mg/kg/injection, schedule: Q01DX009 (ip), vehicle: Klucel (hydroxypropylcellulose) (HPC)) is 100 % of control; the T/C under setting [2] was 115 % of control; the T/C (dose: 12.5 mg/kg/injection, schedule: Q01DX009 (ip), vehicle: Klucel (hydroxypropylcellulose) (HPC)) is 91 % of control and 100 % of control; the T/C under setting [3] is 112 % of control.
On to `COc1cc2c(cc1OC)C1CCN3CCCC3N1CC2` (configuration not stated), for which the T/C was 105 % of control under setting [4]; 105 % of control under setting [5]; 86 % of control and 100 % of control and 116 % of control under setting [6].
Turning to `N#Cc1ccc(/C=C/C(=O)c2ccccc2)cc1`, the T/C under setting [6] was 101 % of control and the T/C under setting [7] was 101 % of control.
As for `CO[C@@]12[C@H](COC(N)=O)C3=C(C(=O)C(C)=C(N)C3=O)N1C[C@@H]1N[C@@H]12`, the T/C is 113 % of control (dose: 0.06 mg/kg/injection, schedule: Q01DX009 (ip), vehicle: Klucel (hydroxypropylcellulose) (HPC)); 99 % of control (dose: 0.1 mg/kg/injection, schedule: Q04DX003 (ip), vehicle: saline); 105 % of control (dose: 0.13 mg/kg/injection, schedule: Q01DX001 (ip), vehicle: clinical formulation); 114 % of control (dose: 0.13 mg/kg/injection, schedule: Q01DX009 (ip), vehicle: Klucel (hydroxypropylcellulose) (HPC)); 117 % of control (dose: 0.13 mg/kg/injection, schedule: Q01DX009 (ip), vehicle: saline); 113 % of control (dose: 0.2 mg/kg/injection, schedule: Q04DX003 (ip), vehicle: saline). The T/C runs as follows: (dose: 0.22 mg/kg/injection, schedule: Q01DX009 (ip), vehicle: saline) 103 % of control; (dose: 0.25 mg/kg/injection, schedule: Q01DX001 (ip), vehicle: clinical formulation) 114 % of control; (dose: 0.25 mg/kg/injection, schedule: Q01DX009 (ip), vehicle: Klucel (hydroxypropylcellulose) (HPC)) 110 % of control; (dose: 0.25 mg/kg/injection, schedule: Q01DX009 (ip), vehicle: saline) 103 % of control; (dose: 0.36 mg/kg/injection, schedule: Q01DX009 (ip), vehicle: saline) 117 % of control; (dose: 0.5 mg/kg/injection, schedule: Q01DX001 (ip), vehicle: clinical formulation) 123 % of control. Moreover, the T/C runs as follows: (dose: 0.5 mg/kg/injection, schedule: Q01DX009 (ip), vehicle: Klucel (hydroxypropylcellulose) (HPC)) 113 % of control; (dose: 0.5 mg/kg/injection, schedule: Q01DX009 (ip), vehicle: saline) 159 % of control; (dose: 0.54 mg/kg/injection, schedule: Q01DX009 (ip), vehicle: saline) 154 % of control and 217 % of control; (dose: 0.54 mg/kg/injection, schedule: Q01DX010 (ip), vehicle: saline) 114 % of control; (dose: 0.6 mg/kg/injection, schedule: Q01DX009 (ip), vehicle: saline) 151 % of control; (dose: 0.9 mg/kg/injection, schedule: Q01DX010 (ip), vehicle: saline) 107 % of control. Besides, the T/C is 152 % of control (dose: 1.0 mg/kg/injection, schedule: Q01DX007 (ip), vehicle: saline); 181 % of control and 189 % of control (dose: 1.0 mg/kg/injection, schedule: Q01DX009 (ip), vehicle: Klucel (hydroxypropylcellulose) (HPC)); 169 % of control (dose: 1.0 mg/kg/injection, schedule: Q01DX009 (ip), vehicle: saline sonified); 159 % of control (dose: 1.0 mg/kg/injection, schedule: Q04DX003 (ip), vehicle: clinical formulation); 101 % of control (dose: 1.5 mg/kg/injection, schedule: Q01DX010 (ip), vehicle: saline); 151 % of control (dose: 1.5 mg/kg/injection, schedule: Q04DX003 (ip), vehicle: clinical formulation). For the same molecule, the T/C (dose: 1.5 mg/kg/injection, schedule: Q04DX003 (ip), vehicle: saline) was 164 % of control; the T/C (dose: 1.6 mg/kg/injection, schedule: Q04DX003 (ip), vehicle: saline) is 172 % of control; the T/C (dose: 1.67 mg/kg/injection, schedule: Q01DX009 (ip), vehicle: saline) is 151 % of control; the T/C (dose: 2.0 mg/kg/injection, schedule: Q01DX001 (ip), vehicle: clinical formulation) was 153 % of control; the T/C (dose: 2.0 mg/kg/injection, schedule: Q04DX003 (ip), vehicle: clinical formulation) is 236 % of control; the T/C (dose: 2.5 mg/kg/injection, schedule: Q01DX009 (ip), vehicle: saline) is 34 % of control and 57 % of control. Also, the T/C reads like this: (dose: 2.5 mg/kg/injection, schedule: Q01DX010 (ip), vehicle: saline) 105 % of control; (dose: 3.0 mg/kg/injection, schedule: Q04DX003 (ip), vehicle: clinical formulation) 260 % of control; (dose: 3.0 mg/kg/injection, schedule: Q04DX003 (ip), vehicle: saline) 193 % of control; (dose: 3.2 mg/kg/injection, schedule: Q04DX003 (ip), vehicle: saline) 231 % of control; (dose: 4.0 mg/kg/injection, schedule: Q01DX007 (ip), vehicle: saline) 57 % of control.
For `CCc1ccc(NC(=O)C(c2ccccc2)c2ccccc2)cc1`, the T/C reads like this: under setting [3], 89 % of control; under setting [8], 86 % of control.
On to `CCC1=C(C[C@H]2NCCc3cc(OC)c(OC)cc32)C[C@H]2c3cc(OC)c(OC)cc3CCN2C1`, for which the T/C reads like this: (dose: 2.0 mg/kg/injection, schedule: Q01DX009 (ip), vehicle: Klucel (hydroxypropylcellulose) (HPC)) 114 % of control; (dose: 2.0 mg/kg/injection, schedule: Q01DX009 (ip), vehicle: saline) 103 % of control and 111 % of control; (dose: 4.0 mg/kg/injection, schedule: Q01DX009 (ip), vehicle: saline) 106 % of control and 107 % of control; (dose: 5.0 mg/kg/injection, schedule: Q01DX005 (ip), vehicle: saline) 118 % of control; under setting [9], 116 % of control.
For the molecule `C/C=C(\Cl)C1=CC(=O)C23CC2C2(C)COC1(O)C3(O)O2` (configuration not stated), the T/C (dose: 0.75 mg/kg/injection, schedule: Q01DX009 (ip), vehicle: saline with Tween-80) was 91 % of control.
On to `CC(C)c1cccc(C(C)C)c1OC(=O)Nc1ccccc1Cl`, for which the T/C is 100 % of control (dose: 100.0 mg/kg/injection, schedule: Q04DX003 (ip), vehicle: Klucel (hydroxypropylcellulose) (HPC)) and 96 % of control (dose: 200.0 mg/kg/injection, schedule: Q04DX003 (ip), vehicle: Klucel (hydroxypropylcellulose) (HPC)).
Turning to `CC1=NCCc2c1cc1c([nH]c3ccccc31)c2C`, the T/C by setting is: under setting [3], 105 % of control; under setting [8], 110 % of control.
`COc1ccc(Cl)cc1NC(=O)c1ccc(Cl)cc1Cl`: the T/C (dose: 100.0 mg/kg/injection, schedule: Q04DX003 (ip), vehicle: saline with Tween-80) was 100 % of control; the T/C (dose: 200.0 mg/kg/injection, schedule: Q04DX003 (ip), vehicle: saline with Tween-80) is 97 % of control; the T/C (dose: 400.0 mg/kg/injection, schedule: Q04DX003 (ip), vehicle: saline with Tween-80) was 95 % of control.
As to `Cc1cc(Cc2ccc(N=C=O)c(C)c2)ccc1N=C=O`, the T/C is 89 % of control under setting [1]; 92 % of control under setting [2]; 92 % of control and 102 % of control under setting [3].
For the molecule `O=CNC(CSC(=O)c1ccccc1)C(=O)O` (configuration not stated), the T/C was 100 % of control under setting [5], 100 % of control under setting [6] and 94 % of control under setting [7].
`NC(=O)c1nn(C2OC(CO)C(O)C2O)c2ncnc(N)c12` (configuration not stated): the T/C was 96 % of control (dose: 1.25 mg/kg/injection, schedule: Q01DX009 (ip), vehicle: Klucel (hydroxypropylcellulose) (HPC)); 104 % of control (dose: 2.5 mg/kg/injection, schedule: Q01DX009 (ip), vehicle: Klucel (hydroxypropylcellulose) (HPC)); 107 % of control under setting [9]; 118 % of control (dose: 10.0 mg/kg/injection, schedule: Q01DX009 (ip), vehicle: Klucel (hydroxypropylcellulose) (HPC)); 103 % of control under setting [4].
